Data reported in ChEMBL document CHEMBL3046828, “Disappearance of pyrimethanil residues on tomato plants” (J Agric Food Chem, 2002).

Columns and labels:
[1] = Half life in Solanum lycopersicum (tomato) plant leaves at 300 g/L treated under green house condition; assay type: ADME, Leaf
[2] = test system: Leaf; assay: Drug degradation in Solanum lycopersicum (tomato) plant leaves at 300 g/L treated under green house condition measured after 10 days relative to initial level; assay type: ADME; details: 240 h
[3] = test system: Leaf; assay: Drug residue remaining in Solanum lycopersicum (tomato) plant leaves at 300 g/L treated under green house condition measured after 22 days relative to initial level; details: 528 h
[4] = test system: Fruit; assay: Drug recovery in Solanum lycopersicum (tomato) plant fruits at 0.14 ug/g of spiking level; assay type: ADME
[5] = test system: Fruit; assay: Residue remaining in Solanum lycopersicum (tomato) plant fruits at 300 g/L treated under green house condition measured after 3 days relative to initial level; details: 72 h
[6] = test system: Leaf; assay: Residue remaining in Solanum lycopersicum (tomato) plant leaves at 300 g/L treated under green house condition measured after 7 days relative to initial level; details: 168 h
[7] = test system: Leaf; assay: Drug degradation in Solanum lycopersicum (tomato) plant leaves at 300 g/L treated under green house condition measured after 8 days relative to initial level; assay type: ADME; details: 192 h
[8] = test system: Fruit; assay: Drug degradation in Solanum lycopersicum (tomato) plant fruits at 300 g/L treated under green house condition measured after 1 day relative to initial level; assay type: ADME; details: 24 h
[9] = test system: Fruit; assay: Drug degradation in Solanum lycopersicum (tomato) plant fruits at 300 g/L treated under green house condition measured after 15 days relative to initial level; assay type: ADME; details: 360 h
[10] = test system: Fruit; assay: Drug degradation in Solanum lycopersicum (tomato) plant fruits at 300 g/L treated under green house condition measured after 22 days relative to initial level; assay type: ADME; details: 528 h
[11] = test system: Fruit; assay: Drug degradation in Solanum lycopersicum (tomato) plant fruits at 300 g/L treated under green house condition measured after 8 days relative to initial level; assay type: ADME; details: 192 h
[12] = Half life in Solanum lycopersicum (tomato) plant fruits at 300 g/L treated under green house condition; assay type: ADME, Fruit
[13] = test system: Fruit; assay: Drug degradation in Solanum lycopersicum (tomato) plant fruits at 300 g/L treated under green house condition measured after 10 days relative to initial level; assay type: ADME; details: 240 h
[14] = test system: Leaf; assay: Drug degradation in Solanum lycopersicum (tomato) plant leaves at 300 g/L treated under green house condition measured after 6 days relative to initial level; assay type: ADME; details: 144 h
[15] = test system: Leaf; assay: Residue remaining in Solanum lycopersicum (tomato) plant leaves at 300 g/L treated under green house condition measured after 11 days relative to initial level; details: 264 h
[16] = test system: Leaf; assay: Drug degradation in Solanum lycopersicum (tomato) plant leaves at 300 g/L treated under green house condition measured after 1 day relative to initial level; assay type: ADME; details: 24 h
[17] = test system: Leaf; assay: Drug degradation in Solanum lycopersicum (tomato) plant leaves at 300 g/L treated under green house condition measured after 5 days relative to initial level; assay type: ADME; details: 120 h
[18] = test system: Leaf; assay: Drug degradation in Solanum lycopersicum (tomato) plant leaves at 300 g/L treated under green house condition measured after 4 days relative to initial level; assay type: ADME; details: 96 h
[19] = test system: Leaf; assay: Drug degradation in Solanum lycopersicum (tomato) plant leaves at 300 g/L treated under green house condition measured after 3 days relative to initial level; assay type: ADME; details: 72 h
[20] = test system: Leaf; assay: Drug degradation in Solanum lycopersicum (tomato) plant leaves at 300 g/L treated under green house condition measured after 15 days relative to initial level; assay type: ADME; details: 360 h
[21] = test system: Leaf; assay: Drug recovery in Solanum lycopersicum (tomato) plant leaves at 1.83 ug/cm'2 of spiking level; assay type: ADME

`Cc1cc(C)nc(Nc2ccccc2)n1` [PYRIMETHANIL] gave a half-life [1] of 96 h, a Drug degradation [2] of 0.02% and a Residue remaining [3] of 0%. The Drug recovery [4] was 99%, the Residue remaining [5] was 79% and the Residue remaining [6] was 11%. It also gave a Drug degradation [7] of 0%, a Drug remaining [8] of 100% and a Residue remaining [9] of 5%. The Residue remaining [10] was 0%, the Residue remaining [11] was 16% and the half-life [12] was 137 h. It also gave a Drug remaining [13] of 15%, a Residue remaining [14] of 11% and a Residue remaining [15] of 0%. For the same compound, the Drug remaining [16] was 100%, the Drug remaining [17] was 25% and the Residue remaining [18] was 22%. For the same compound, the Residue remaining [19] was 41%, the Drug degradation [20] was 0% and the Drug recovery [21] was 91%.
